Results as given in BindingDB's records for doi:10.1016/s0960-894x(01)00573-x (Pfizer, 2001).

Molecular target: T1, Caspase-1 (Homo sapiens, UniProt P29466)
T1 sequence (P29466 whole entry): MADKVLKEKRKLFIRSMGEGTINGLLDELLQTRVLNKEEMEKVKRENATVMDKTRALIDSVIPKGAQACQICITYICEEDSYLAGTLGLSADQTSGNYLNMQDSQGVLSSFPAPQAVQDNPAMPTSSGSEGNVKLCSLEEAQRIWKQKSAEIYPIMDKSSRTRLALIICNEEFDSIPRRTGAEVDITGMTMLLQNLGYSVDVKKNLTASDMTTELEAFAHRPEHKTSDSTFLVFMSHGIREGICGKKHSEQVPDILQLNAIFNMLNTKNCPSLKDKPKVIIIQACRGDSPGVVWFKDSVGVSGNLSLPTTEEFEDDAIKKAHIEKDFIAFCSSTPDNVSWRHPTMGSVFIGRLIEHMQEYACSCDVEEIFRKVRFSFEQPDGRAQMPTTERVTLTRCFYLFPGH
Test: Caspase Inhibition Assay
Details: pH 7; 37 °C
Procedure: The substrate peptides terminating in AMC are processed by caspases with or without inhibitors, and the accumulation of AMC was assessed with a Cytofluor fluorescent plate reader at excitation and emission wavelengths of 380 and 460 nm. Compounds were tested, and full IC50 curves were run for all compounds expressing measurable inhibitory activity.

Ki [nM] | SMILES
4200 | O=C[C@H](CC(=O)O)NS(=O)(=O)c1ccccc1Oc1ccc(-c2ccc(C(=O)O)cc2)cc1 [4-[4-(2-{[(2S)-1-carboxy-3-oxopropan-2-yl]sulfamoyl}phenoxy)phenyl]benzoic acid]
110 | Cc1cc(Oc2ccccc2S(=O)(=O)N[C@H](C=O)CC(=O)O)ccc1C(C)C [(3S)-3-({2-[3-methyl-4-(propan-2-yl)phenoxy]benzene}sulfonamido)-4-oxobutanoic acid]
100 | CCC(C)c1ccc(Oc2ccccc2S(=O)(=O)N[C@H](C=O)CC(=O)O)cc1C (stereo partly drawn) [(3S)-3-({2-[4-(butan-2-yl)-3-methylphenoxy]benzene}sulfonamido)-4-oxobutanoic acid]
490 | CCC(C)c1ccc(Oc2ccccc2S(=O)(=O)N[C@H](C=O)CC(=O)O)cc1 (stereo partly drawn) [(3S)-3-({2-[4-(butan-2-yl)phenoxy]benzene}sulfonamido)-4-oxobutanoic acid]
1000 | Cc1cccc(Oc2ccccc2S(=O)(=O)N[C@H](C=O)CC(=O)O)c1C [(3S)-3-{[2-(2,3-dimethylphenoxy)benzene]sulfonamido}-4-oxobutanoic acid]
3000 | Cc1ccccc1Oc1ccccc1S(=O)(=O)N[C@H](C=O)CC(=O)O [(3S)-3-{[2-(2-methylphenoxy)benzene]sulfonamido}-4-oxobutanoic acid]
430 | Cc1cccc(Oc2ccccc2S(=O)(=O)N[C@H](C=O)CC(=O)O)c1 [(3S)-3-{[2-(3-methylphenoxy)benzene]sulfonamido}-4-oxobutanoic acid]
900 | O=C[C@H](CC(=O)O)NS(=O)(=O)c1ccccc1Oc1ccc(C2CCCCC2)cc1 [(3S)-3-{[2-(4-cyclohexylphenoxy)benzene]sulfonamido}-4-oxobutanoic acid]
880 | O=C[C@H](CC(=O)O)NS(=O)(=O)c1ccccc1Oc1ccc(C2CCCC2)cc1 [(3S)-3-{[2-(4-cyclopentylphenoxy)benzene]sulfonamido}-4-oxobutanoic acid]
1100 | Cc1ccc(Oc2ccccc2S(=O)(=O)N[C@H](C=O)CC(=O)O)cc1 [(3S)-3-{[2-(4-methylphenoxy)benzene]sulfonamido}-4-oxobutanoic acid]
440 | CCC(CC)c1ccc(Oc2ccccc2S(=O)(=O)N[C@H](C=O)CC(=O)O)cc1 [(3S)-4-oxo-3-({2-[4-(pentan-3-yl)phenoxy]benzene}sulfonamido)butanoic acid]
620 | CC(C)c1ccc(Oc2ccccc2S(=O)(=O)N[C@H](C=O)CC(=O)O)cc1 [(3S)-4-oxo-3-({2-[4-(propan-2-yl)phenoxy]benzene}sulfonamido)butanoic acid]
2400 | O=C[C@H](CC(=O)O)NS(=O)(=O)c1ccccc1Oc1ccccc1 [(3S)-4-oxo-3-[(2-phenoxybenzene)sulfonamido]butanoic acid]
450 | Cc1cc(Oc2ccccc2S(=O)(=O)N[C@H](C=O)CC(=O)O)cc(C)c1C [(3S)-4-oxo-3-{[2-(3,4,5-trimethylphenoxy)benzene]sulfonamido}butanoic acid]
290 | O=C[C@H](CC(=O)O)NS(=O)(=O)c1ccccc1Oc1ccc(-c2ccccc2)cc1 [(3S)-4-oxo-3-{[2-(4-phenylphenoxy)benzene]sulfonamido}butanoic acid]
